Reference: patent US20070203220A1, “Inhibitors Of PAI-1 For Treatment Of Muscular Conditions” (Wyeth, priority 2006, published 2007)

Key:
mdx mice = test: mdx mouse model of muscular dystrophy, drug in rodent chow for 9 months, muscle and body weights; type: in vivo; conditions: female mdx mice
Text: The mdx mouse is a genetic model of Duchenne and Becker muscular dystrophies, providing a model system of muscle degeneration with aberrant regeneration. In this model, a nonsense mutation in the dystrophin gene results in the absence of dystrophin from the sarcolemma, and subsequent muscle fiber necrosis. Conversely, mice deficient in plasminogen activator inhibitor-1 have improved skeletal muscle regeneration. It was hypothesized that a small molecule PAI-1 inhibitor, such as, for example {1-Benzyl-5-[4-(trifluoromethoxy)phenyl]-1H-indol-3-yl}(oxo)acetic acid could potentially produce beneficial effects on the skeletal muscle of mdx mice.
Female mdx mice were purchased from a commercial vendor, and divided into 2 groups of equal body weight. {1-Benzyl-5-[4-(trifluoromethoxy)phenyl]-1H-indol-3-yl}(oxo)acetic acid was formulated into rodent chow at a concentration of 1 mg of drug per 1 gram of food (1 mg/g), and this mixture was formed into food pellets. A standard, pelleted rodent chow was used as the control diet. One group of mice received the drug-containing diet, while the other group received the control diet ad libitum. Each diet was coded, and the animal technicians remained blinded to the composition of the diets throughout the study.
Eight mice received either the control or drug-containing diet for 9 months. At the end of the study, the mice were killed, and muscle and body weights were measured. There was no change in body weight between groups (28.1±0.45 g for drug-treated vs. 28.3±0.69 g for Control). […] Because muscular dystrophy is a wasting disease, changes in muscle weight are routinely expressed per unit of body weight in preclinical studies. Therefore, the individual weight of each gastrocnemius muscle (mg) was expressed relative to total body weight (g). […] In drug-treated mice, muscle weight per unit of body weight was 5.02±0.13 mg/g, while in mice on the control diet, this value was 4.56 mg/g±0.20 (p=0.07).

Row | SMILES | melting point | difference in group means of gastrocnemius muscle weight, drug-treated vs control (mdx mice; drug in chow 1 mg/g) [%] | muscle weight per unit of body weight (gastrocnemius) (mdx mice; drug in chow 1 mg/g ad libitum, p=0.07 vs control) [mg/g] | gastrocnemius muscle weight (mdx mice; drug in chow 1 mg/g ad libitum, p=0.11 vs control) [mg]
1 | Cn1cc(C(=O)C(=O)O)c2ccc(-c3ccc(OC(F)(F)F)cc3)cc21 | 233 to 235 °C (dec.) |  |  | 
2 | CC(=O)c1ccc(-c2ccc3c(c2)c(C(=O)C(=O)O)cn3Cc2ccccc2)cc1 | 213 to 214 °C (dec.) |  |  | 
3 | Cc1ccc(Cn2cc(C(=O)C(=O)O)c3cc(-c4ccccc4)ccc32)cc1 | 195 to 196 °C |  |  | 
4 | O=C(O)C(=O)c1cn(Cc2ccccc2)c2ccc(-c3ccc(OC(F)(F)F)cc3)cc12 [{1-Benzyl-5-[4-(trifluoromethoxy)phenyl]-1H-indol-3-yl}(oxo)acetic acid] |  | 8.6 | 5.02 ± 0.13 | 141.0 ± 4.1
